Reference: ChEMBL document CHEMBL1811798, “Synthesis and evaluation of 2'-O-allyl substituted dinucleotide cap analog for mRNA translation” (Bioorg Med Chem, 2010)
Activity calls are given as the source filed them. The calls are words filed in the database; no cut-off is given here.

What was measured:
Nucleic Acid [1] = assay: Capping efficiency on beta-actin mRNA using [alpha-32P]-ATP at 1.6 mM after 2 hrs by gel shift assay in presence of T7 RNA polymerase; type: nucleic-acid assay
HeLa = assay: Translational efficiency bacteriophage T7 RNA polymerase expressed in human HeLa cells assessed as protein production using 5'-capped RAN after 16 hrs of post-transfection by luciferase reporter gene assay relative to standard cap analog; type: cell-based; conditions: Escherichia phage T7
Escherichia phage T7 = assay: Binding affinity to bacteriophage T7 RNA polymerase assessed as incorporation of compound into supercoiled mRNA transcript at 6 mM after 2 hrs
Nucleic Acid [2] = assay: Capping efficiency on beta-actin mRNA using [alpha-32P]-ATP at 1.6 mM after 2 hrs by HPLC analysis in presence of T7 RNA polymerase; type: nucleic-acid assay

C=CCO[C@@H]1[C@H](O)[C@@H](COP(=O)(O)OP(=O)([O-])OP(=O)(O)OC[C@H]2O[C@@H](n3cnc4c(=O)[nH]c(N)nc43)[C@H](O)[C@@H]2O)O[C@H]1[n+]1cn(C)c2c(=O)[nH]c(N)nc21 was tested. Which Activity (Nucleic Acid [1]) did it give?
Its Activity is 70%.

What about the fold change (FC) (HeLa) of the same molecule?
Its fold change (FC) is 1.7.

And the Activity (Escherichia phage T7)?
Its Activity is “Active”.

And the Activity (Nucleic Acid [2])?
Its Activity is “Active”.
